Drawing on patent US20040175691A1, “Use of the KCNQ2 and KCNQ3 genes for the discovery of agents useful in the treatment of neurological disorders” (priority 1998, published 2004), this text covers IC50 for two molecules.

Some results are limits rather than exact numbers.

The target in one assay is T1, erg1 (Rattus norvegicus, UniProt O08962).
T1 construct: expressed in transfected cells; host or cells: oocytes (Xenopus)
T1 sequence (O08962 1-1163): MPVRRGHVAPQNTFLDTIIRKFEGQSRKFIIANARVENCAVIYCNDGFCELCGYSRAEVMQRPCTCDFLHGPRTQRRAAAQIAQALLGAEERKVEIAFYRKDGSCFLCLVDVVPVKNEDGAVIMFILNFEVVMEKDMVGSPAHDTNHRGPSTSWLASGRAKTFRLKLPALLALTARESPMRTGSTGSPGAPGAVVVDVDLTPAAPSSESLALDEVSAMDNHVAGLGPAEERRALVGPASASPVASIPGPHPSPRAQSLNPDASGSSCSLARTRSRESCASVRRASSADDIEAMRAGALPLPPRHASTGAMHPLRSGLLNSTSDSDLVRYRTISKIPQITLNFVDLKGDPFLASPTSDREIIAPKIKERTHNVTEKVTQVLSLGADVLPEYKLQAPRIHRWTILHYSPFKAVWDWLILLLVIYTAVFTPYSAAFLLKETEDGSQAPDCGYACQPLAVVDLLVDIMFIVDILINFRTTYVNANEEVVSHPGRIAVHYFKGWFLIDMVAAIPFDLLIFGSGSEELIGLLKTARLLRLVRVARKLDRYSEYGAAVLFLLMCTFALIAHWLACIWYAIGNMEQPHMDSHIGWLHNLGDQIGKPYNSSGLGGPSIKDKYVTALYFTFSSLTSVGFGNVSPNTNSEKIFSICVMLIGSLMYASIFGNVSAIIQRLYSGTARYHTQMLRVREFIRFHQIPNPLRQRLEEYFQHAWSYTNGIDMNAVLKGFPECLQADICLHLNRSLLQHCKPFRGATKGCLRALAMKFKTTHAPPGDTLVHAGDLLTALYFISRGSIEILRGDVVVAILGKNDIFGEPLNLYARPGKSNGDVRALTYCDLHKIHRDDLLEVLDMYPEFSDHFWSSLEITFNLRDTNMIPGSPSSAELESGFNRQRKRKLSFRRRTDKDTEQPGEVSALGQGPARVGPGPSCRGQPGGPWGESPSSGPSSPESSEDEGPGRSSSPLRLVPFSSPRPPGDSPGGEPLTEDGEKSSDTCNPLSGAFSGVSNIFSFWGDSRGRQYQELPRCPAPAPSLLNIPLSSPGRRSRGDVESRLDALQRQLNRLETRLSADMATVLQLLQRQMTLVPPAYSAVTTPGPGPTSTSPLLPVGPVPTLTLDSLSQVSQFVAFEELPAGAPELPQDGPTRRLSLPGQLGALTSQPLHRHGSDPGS
In words: Blockade of cloned erg1 channel in oocytes. Type of assay: cell-based. The conditions noted are these: mean±s.e.m.

The target of another assay is T2, elk1 (Rattus norvegicus, UniProt Q9QWS8).
T2 construct: expressed in transfected cells; host or cells: oocytes (Xenopus)
T2 sequence (Q9QWS8 1-1102): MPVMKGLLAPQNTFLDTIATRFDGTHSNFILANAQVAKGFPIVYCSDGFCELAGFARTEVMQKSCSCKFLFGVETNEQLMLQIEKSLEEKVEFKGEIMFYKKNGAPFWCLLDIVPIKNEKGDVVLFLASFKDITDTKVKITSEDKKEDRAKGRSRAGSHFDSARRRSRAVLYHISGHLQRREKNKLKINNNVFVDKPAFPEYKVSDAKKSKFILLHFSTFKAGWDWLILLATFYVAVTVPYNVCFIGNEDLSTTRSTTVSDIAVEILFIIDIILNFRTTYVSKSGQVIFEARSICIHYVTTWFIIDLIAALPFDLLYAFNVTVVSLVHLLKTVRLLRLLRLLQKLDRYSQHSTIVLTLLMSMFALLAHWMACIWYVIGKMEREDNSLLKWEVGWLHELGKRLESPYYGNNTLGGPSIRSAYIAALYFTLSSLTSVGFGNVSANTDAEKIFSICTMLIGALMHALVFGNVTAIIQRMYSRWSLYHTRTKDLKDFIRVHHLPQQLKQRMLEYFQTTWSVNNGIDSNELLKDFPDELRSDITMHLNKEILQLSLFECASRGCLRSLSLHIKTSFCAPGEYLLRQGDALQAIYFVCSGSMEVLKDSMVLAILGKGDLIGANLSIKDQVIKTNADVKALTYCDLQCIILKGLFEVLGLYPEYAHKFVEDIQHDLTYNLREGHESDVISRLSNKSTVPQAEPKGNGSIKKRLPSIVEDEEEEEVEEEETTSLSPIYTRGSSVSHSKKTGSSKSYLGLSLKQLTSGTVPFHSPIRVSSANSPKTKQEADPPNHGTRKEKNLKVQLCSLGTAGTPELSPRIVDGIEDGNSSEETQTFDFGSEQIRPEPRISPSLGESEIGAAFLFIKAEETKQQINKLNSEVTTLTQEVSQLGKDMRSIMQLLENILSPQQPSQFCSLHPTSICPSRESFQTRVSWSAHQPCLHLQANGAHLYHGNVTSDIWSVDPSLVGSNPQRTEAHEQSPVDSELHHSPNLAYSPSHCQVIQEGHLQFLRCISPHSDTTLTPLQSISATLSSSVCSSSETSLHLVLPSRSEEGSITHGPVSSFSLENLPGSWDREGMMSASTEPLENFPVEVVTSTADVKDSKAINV
Briefly: Blockade of cloned elk1 channel in oocytes. Type of assay: cell-based.

A word on the IC50: it is the concentration at which inhibition is half-maximal. As to `O=C1N(c2ccccc2)c2ccccc2C1(Cc1ccncc1)Cc1ccncc1` [Linopirdine, 3,3-bis(4-pyridinylmethyl)-1-phenylindolin-2-one], the IC50 against erg1 was 53 ± 4 µM; on elk1 (at +30 mV), 144 µM; on elk1 (at −20 mV) it was 26 µM; on elk1 (step to −10 mV, voltage dependent) it was 37 ± 4 µM.
For the molecule `O=C1c2ccccc2C(Cc2ccncc2)(Cc2ccncc2)c2ccccc21` [XE991, 10,10-bis(4-pyridinylmethyl)-9(10H)-anthracenone], the IC50 at erg1 and at elk1 (oocytes) was more than 100 µM in each case.
